Tested on: Hepatitis B virus
Test: Antiviral activity against HBV in human HepDE19 cells producing HBV cccDNA assessed as reduction in cccDNA production by measuring HBeAg level incubated for 24 hrs by ELISA
Assay type: functional, organism-based
Conditions: HepDE19, 24 h

Question: For COc1c(-c2cc(=O)c3cccc(Cl)c3o2)ccc(Br)c1OC1CC(C(=O)O)C1 (stereo unspecified), which IC50 is on record?
Answer: The IC50 was 190 nM.

Question: How did the IC50 turn out when Cc1ccc(-c2cc(=O)c3cccc(Cl)c3o2)cc1O[C@H]1C[C@@H](C(=O)O)C1 was run?
Answer: Its IC50 is 490 nM.

Question: For O=C(O)COc1cc(-c2cc(=O)c3cccc(Cl)c3o2)ccc1C(F)(F)F, which IC50 is on record?
Answer: Its IC50 is 320 nM.

Question: For CCOc1cc(Br)c(OCCC(=O)O)cc1-c1cc(=O)c2cccc(Cl)c2o1, which IC50 is on record?
Answer: The IC50 was 110 nM.

Question: COc1cc(OC)c(-c2cc(=O)c3cccc(Cl)c3o2)cc1OCCOC1CC(C(=O)O)C1 (stereo unspecified) was tested. Which IC50 did it give?
Answer: Its IC50 is 190 nM.

Question: O=C(O)CCOc1cc(-c2cc(=O)c3cccc(Cl)c3o2)c(F)cc1Br was tested. Which IC50 did it give?
Answer: Its IC50 is 133 nM.

— ChEMBL document CHEMBL4680364, “Substituted Chromen-4-one Derivatives for Treating Hepatitis B Virus Infection” (ACS Med Chem Lett, 2021)
